Test results reported in patent US12581252B2, “Substituted pyrrolo[3,4-b]pyridines as PI3K-α inhibitors” (Relay Therapeutics, Inc., priority 2020, dated 2026).

Molecular target: H1047R PIK3CA enzyme (Homo sapiens, UniProt P42336, H1047R)
Test: ADP-Glo Biochemical PIK3CA Kinase Assay
Description: Compounds to be assayed were plated in 16 doses of 1:2 serial dilutions (20 nL volume each well) on a 1536-well plate, and the plate warmed to room temperature. […] To the well was added 1 μL of 200 μM ATP and 20 μM of diC8-PIP2 in Substrate Assay Buffer (50 mM HEPES pH7.4, 50 mM NaCl, 5 mM DTT and 0.03% CHAPS) to start the reaction, and the plate was shaken for 10 seconds, then spun briefly at 1500 rpm, and then incubated for 60 minutes at room temperature. The reaction was stopped by adding 2 μL of ADP-Glo reagent (Promega), and spinning briefly at 1500 rpm, and then incubating for 40 minutes. ADP-Glo Detection reagent (Promega) was added and the plate spun briefly at 1500 rpm, then incubated for 30 minutes.

Sequence of H1047R PIK3CA enzyme (P42336 whole entry H1047R): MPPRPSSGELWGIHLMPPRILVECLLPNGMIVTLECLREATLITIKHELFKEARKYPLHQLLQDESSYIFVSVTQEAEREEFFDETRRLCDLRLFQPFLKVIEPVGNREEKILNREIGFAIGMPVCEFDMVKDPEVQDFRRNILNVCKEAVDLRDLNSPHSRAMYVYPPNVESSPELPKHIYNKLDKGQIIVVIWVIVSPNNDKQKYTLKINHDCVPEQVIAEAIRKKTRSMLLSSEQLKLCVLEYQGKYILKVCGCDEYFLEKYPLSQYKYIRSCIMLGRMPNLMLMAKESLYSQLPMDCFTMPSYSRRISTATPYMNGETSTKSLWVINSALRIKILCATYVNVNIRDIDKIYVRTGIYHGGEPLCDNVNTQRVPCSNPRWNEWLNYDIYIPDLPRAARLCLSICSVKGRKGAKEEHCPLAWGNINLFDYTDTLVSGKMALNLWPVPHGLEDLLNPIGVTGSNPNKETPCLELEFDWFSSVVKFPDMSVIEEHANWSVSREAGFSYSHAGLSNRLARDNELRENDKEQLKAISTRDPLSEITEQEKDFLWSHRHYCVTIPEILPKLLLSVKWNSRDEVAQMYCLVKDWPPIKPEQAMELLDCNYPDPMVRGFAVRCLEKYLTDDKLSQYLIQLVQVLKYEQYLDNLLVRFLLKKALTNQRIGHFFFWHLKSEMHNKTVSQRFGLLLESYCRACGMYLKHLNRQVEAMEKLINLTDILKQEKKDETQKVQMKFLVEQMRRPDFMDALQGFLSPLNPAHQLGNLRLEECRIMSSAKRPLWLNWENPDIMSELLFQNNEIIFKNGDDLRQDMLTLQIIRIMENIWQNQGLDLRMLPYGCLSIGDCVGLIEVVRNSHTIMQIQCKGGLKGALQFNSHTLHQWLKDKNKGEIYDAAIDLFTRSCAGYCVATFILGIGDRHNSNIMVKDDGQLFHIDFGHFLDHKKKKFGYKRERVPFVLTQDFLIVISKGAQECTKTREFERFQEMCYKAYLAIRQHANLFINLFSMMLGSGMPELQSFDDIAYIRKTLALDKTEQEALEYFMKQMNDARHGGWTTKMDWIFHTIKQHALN
Sequence of H1047R PIK3CA enzyme (P27986 whole entry partner): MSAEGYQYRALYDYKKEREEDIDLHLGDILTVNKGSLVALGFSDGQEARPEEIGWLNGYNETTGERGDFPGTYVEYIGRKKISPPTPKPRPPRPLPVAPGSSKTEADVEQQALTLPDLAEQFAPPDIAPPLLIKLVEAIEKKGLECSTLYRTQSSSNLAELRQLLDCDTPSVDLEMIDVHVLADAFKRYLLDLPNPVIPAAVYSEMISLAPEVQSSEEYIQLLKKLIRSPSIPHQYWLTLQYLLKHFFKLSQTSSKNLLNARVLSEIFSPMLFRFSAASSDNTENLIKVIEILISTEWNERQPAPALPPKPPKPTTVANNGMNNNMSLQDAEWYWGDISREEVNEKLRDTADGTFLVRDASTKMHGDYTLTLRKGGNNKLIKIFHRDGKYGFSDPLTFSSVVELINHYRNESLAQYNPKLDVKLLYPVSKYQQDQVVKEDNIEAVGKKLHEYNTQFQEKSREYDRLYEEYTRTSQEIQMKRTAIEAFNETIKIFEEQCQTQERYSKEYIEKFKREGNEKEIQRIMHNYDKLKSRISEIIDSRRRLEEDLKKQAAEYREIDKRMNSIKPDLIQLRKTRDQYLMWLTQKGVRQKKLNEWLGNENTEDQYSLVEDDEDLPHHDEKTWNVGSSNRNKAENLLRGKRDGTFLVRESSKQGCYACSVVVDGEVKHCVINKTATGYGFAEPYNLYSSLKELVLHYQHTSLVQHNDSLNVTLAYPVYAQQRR

| SMILES | IC50 [µM] |
| --- | --- |
| O=C(Nc1cc(-c2ccc3ncc(F)n3c2)cc2c1[C@@H](c1cc(F)ccc1Cl)NC2=O)c1cc(F)cc(C(F)(F)F)c1 [Compound I-1869] | 0.5 to 1 |
| O=C1NC(c2cc(F)ccc2Cl)c2c(NC(=O)C3CCCc4ccccc4C3)cccc21 (mixture of isomers) [Compound I-2375] | 10 to 100 |
| O=C(Nc1cc(Br)cc2c1[C@@H](c1cc(Cl)cc(F)c1F)NC2=O)c1cc(F)cc(C(F)(F)F)c1 [Compound I-787] | 1 to 10 |
| NCc1cc(NC(=O)N2C[C@@](O)(C(F)F)c3cc(F)ccc32)c2c(c1)C(=O)N[C@H]2c1cc(F)ccc1Cl (single isomer, unassigned) [Compound I-2696] | 1 to 10 |
| N#C[C@H]1C[C@@H](Oc2cc(NC(=O)c3cc(F)cc(C(F)(F)F)c3)c3c(c2)C(=O)N[C@H]3c2cc(F)ccc2Cl)C1 [Compound I-1334] | ≤ 0.1 |
| O=C(Nc1cc(NC2CC(F)(F)C2)nc2c1C(c1cc(F)ccc1Cl)NC2=O)c1cc(F)cc(C(F)(F)F)c1 (stereo not shown) [Compound I-284] | ≤ 0.1 |
| O=C(Nc1cc(-c2ccc3ncc(F)n3c2)cc2c1C(c1cc(F)ccc1Cl)NC2=O)c1cc(F)cc(C(F)(F)F)c1 (stereo not shown) [Compound I-1793] | ≤ 0.1 |
| O=C(Nc1cccc2c1C(c1cccc(Br)c1)NC2=O)c1cc(F)cc(C(F)(F)F)c1 (stereo not shown) [Compound I-663] | 10 to 100 |
| COc1cc(-c2ccc3ncnn3c2)cc2c1C(c1cc(F)ccc1Cl)NC2=O (stereo not shown) [Compound I-1973] | 10 to 100 |
| CS(=O)(=O)CCCOc1cc(NC(=O)c2cc(F)cc(C(F)(F)F)c2)c2c(c1)C(=O)NC2c1cc(F)ccc1Cl (stereo not shown) [Compound I-735] | 0.1 to 0.5 |
| COc1cnc(-c2cc(NC(=O)c3cc(F)cc(C(F)(F)F)c3)c3c(c2)C(=O)NC3c2cc(F)ccc2Cl)cn1 (stereo not shown) [Compound I-1103] | ≤ 0.1 |
| N#Cc1cnccc1-c1cc(NC(=O)c2cc(F)cc(C(F)(F)F)c2)c2c(c1)C(=O)N[C@H]2c1cc(F)ccc1Cl (stereo in doubt) [Compound I-1232] | ≤ 0.1 |
| O=C1N[C@@H](c2cc(F)ccc2Cl)c2c(NC(=O)[C@H]3CC(C(F)(F)F)C[C@@H](O)C3)cc(Br)cc21 (single isomer, unassigned) [Compound I-2275] | 10 to 100 |
| O=C(Nc1cc(Br)cc2c1[C@@H](c1ccc(F)cc1Cl)NC2=O)c1cc(F)cc(C(F)(F)F)c1 [Compound I-754] | 1 to 10 |
| O=C(Nc1cc(NC(=O)c2cc(F)cc(C(F)(F)F)c2)c2c(c1)C(=O)N[C@H]2c1cc(F)ccc1Cl)c1cccnc1 [Compound I-1477] | ≤ 0.1 |
| Cn1nc(C(F)F)cc1-c1cc(NC(=O)c2cc(F)cc(C(F)(F)F)c2)c2c(c1)C(=O)N[C@H]2c1cc(F)ccc1Cl [Compound I-1881] | ≤ 0.1 |
| O=C1N[C@H](c2cc(F)ccc2Cl)c2c(NC(=O)N3C[C@@H](O)c4cc(F)ccc43)cc(-n3ccccc3=O)cc21 (single isomer, unassigned) [Compound I-2352] | 1 to 10 |
| CC(=O)N1CC2(C1)CN(c1cc(NC(=O)c3cc(F)cc(C(F)(F)F)c3)c3c(c1)C(=O)NC3c1cc(F)ccc1Cl)C2 (stereo not shown) [Compound I-1301] | 0.1 to 0.5 |
| Cn1cc(-c2cc(NC(=O)c3cc(F)cc(C(F)(F)F)c3)c3c(c2)C(=O)N[C@@H]3c2cc(F)ccc2Cl)ccc1=O (single isomer, unassigned) [Compound I-701] | 0.5 to 1 |
| Cc1ccccc1C1NC(=O)c2cccc(NC(=O)c3ncc4ccc(Cl)cn34)c21 (stereo not shown) [Compound I-151] | 10 to 100 |

| SMILES | IC50 [µM] |
| --- | --- |
| N#Cc1cnn2ccc(-c3cc(NC(=O)c4cc(F)cc(C(F)(F)F)c4)c4c(c3)C(=O)N[C@@H]4c3cc(F)ccc3Cl)cc12 [Compound I-1798] | 1 to 10 |
| O=C(Nc1cc(-c2ccc3ncnn3c2)cc2c1[C@@H](c1cc(F)ccc1Cl)NC2=O)c1cc(F)cc(Cl)c1 (stereo in doubt) [Compound I-1166] | 1 to 10 |
| O=C(Nc1cc(OC[C@@H]2CCO2)cc2c1[C@H](c1cc(F)ccc1Cl)NC2=O)c1cc(F)cc(C(F)(F)F)c1 (single isomer, unassigned) [Compound I-1517] | ≤ 0.1 |
| CC(C)n1cc(-c2cc(NC(=O)c3cc(F)cc(C(F)(F)F)c3)c3c(c2)C(=O)N[C@@H]3c2cc(F)ccc2Cl)ccc1=O [Compound I-742] | 1 to 10 |
| Cc1ccccc1C1NC(=O)c2cccc(NC(=O)c3nscc3Br)c21 (stereo not shown) [Compound I-463] | 1 to 10 |
| O=C(Nc1cccc2c1C(c1cccc3cn[nH]c13)NC2=O)c1cc(F)cc(C(F)(F)F)c1 (stereo not shown) [Compound I-666] | 10 to 100 |
| O=C(Nc1cc(C(O)CN2CC(F)(F)C2)cc2c1C(c1cc(F)ccc1Cl)NC2=O)c1cc(F)cc(Cl)c1 (stereo not shown) [Compound I-334] | 0.1 to 0.5 |
| O=C1NC(c2cc(F)ccc2Cl)c2c(NC(=O)C34CC(CO)(C3)C4)cccc21 (stereo not shown) [Compound I-2219] | 10 to 100 |
| COc1ccc(C(=O)Nc2cc(Br)cc3c2C(c2cc(F)ccc2Cl)NC3=O)cc1C(F)(F)F (stereo not shown) [Compound I-877] | 0.5 to 1 |
| Cc1ccccc1[C@@H]1NC(=O)c2cccc(NC(=O)c3coc4c(F)cc(F)cc34)c21 [Compound I-98] | 0.1 to 0.5 |
| O=C(Nc1cc(NC2=NCC3(CC3)O2)cc2c1C(c1cc(F)ccc1Cl)NC2=O)c1cc(F)cc(C(F)(F)F)c1 (stereo not shown) [Compound I-2327] | 0.1 to 0.5 |
| O=C(Nc1cc(N2CCC(F)(F)CC2)nc2c1C(c1cc(F)ccc1Cl)NC2=O)c1cc(F)cc(C(F)(F)F)c1 (stereo not shown) [Compound I-539] | ≤ 0.1 |
| O=C(Nc1cc(Br)cc2c1C(c1cccc(F)c1Cl)NC2=O)c1cc(F)cc(C(F)(F)F)c1 (stereo not shown) [Compound I-672] | ≤ 0.1 |
| Cc1nc2cc(-c3cc(NC(=O)c4cc(F)cc(C(F)(F)F)c4)c4c(c3)C(=O)NC4c3cc(F)ccc3Cl)ccc2o1 (stereo not shown) [Compound I-1036] | ≤ 0.1 |
| Cn1ncc2c(C(=O)Nc3cccc4c3C(c3cc(F)ccc3Cl)NC4=O)cc(F)cc21 (stereo not shown) [Compound I-871] | 10 to 100 |
| O=C1NC(c2cc(F)ccc2Cl)c2c(NC(=O)N3CCC(c4ccccc4)C3)cc(Br)cc21 (racemic) [Compound I-598] | 1 to 10 |
| CNc1cc(NC(=O)N2C[C@](O)(C(F)F)c3cc(F)ccc32)c2c(c1)C(=O)N[C@H]2c1cc(F)ccc1Cl (single isomer, unassigned) [Compound I-2678] | 1 to 10 |
| CN1CC[C@H](Nc2cc(NC(=O)c3cc(F)cc(C(F)(F)F)c3)c3c(c2)C(=O)NC3c2cc(F)ccc2Cl)C1 (stereo partly shown) [Compound I-311] | ≤ 0.1 |
| O=C(Nc1cc(-c2ccc3nc(Cl)nn3c2)cc2c1C(c1cc(F)ccc1Cl)NC2=O)c1cc(F)cc(C(F)(F)F)c1 (stereo not shown) [Compound I-1575] | ≤ 0.1 |
| O=C1N[C@H](c2cc(F)ccc2Cl)c2c(NC(=O)[C@@H]3CCC[C@@H](OC(F)(F)F)C3)cccc21 (single isomer, unassigned) [Compound I-2215] | 10 to 100 |

| SMILES | IC50 [µM] |
| --- | --- |
| O=C(Nc1cccc2c1[C@H](C1CCC(F)(F)CC1)NC2=O)c1cc(F)cc(C(F)(F)F)c1 (racemic) [Compound I-1836] | 10 to 100 |
| O=C1N[C@H](c2cc(F)ccc2Cl)c2c(NC(=O)N3CCC[C@](O)(C(F)(F)F)C3)cccc21 (single isomer, unassigned) [Compound I-2114] | 10 to 100 |
| O=C1NC(c2cc(F)ccc2Cl)c2c(NC(=O)N3CCc4cc(OC(F)(F)F)ccc43)cccc21 (stereo not shown) [Compound I-2481] | 1 to 10 |
| O=C(Nc1cccc2c1[C@H](NC1CCCC1)NC2=O)c1cc(F)cc(C(F)(F)F)c1 (single isomer, unassigned) [Compound I-2250] | 10 to 100 |
| O=C(Nc1cc(-c2cnc(C(F)(F)F)nc2)cc2c1C(c1cc(F)ccc1Cl)NC2=O)c1cc(F)cc(C(F)(F)F)c1 (stereo not shown) [Compound I-823] | ≤ 0.1 |
| O=C(Nc1cc(Cc2ccc3c(c2)CCNC3=O)cc2c1[C@@H](c1cc(F)ccc1Cl)NC2=O)c1cc(F)cc(C(F)(F)F)c1 [Compound I-1625] | 0.5 to 1 |
| CC(=O)Cc1cc(NC(=O)c2cc(F)cc(C(F)(F)F)c2)c2c(c1)C(=O)N[C@H]2c1cc(F)ccc1Cl [Compound I-624] | 0.1 to 0.5 |
| C[C@@]1(C(=O)Nc2cc(Br)cc3c2[C@@H](c2cc(F)ccc2Cl)NC3=O)CCC[C@H](C(F)(F)F)C1 (single isomer, unassigned) [Compound I-2260] | 0.5 to 1 |
| Cc1ccccc1[C@H]1NC(=O)c2c(C#N)ccc(NC(=O)c3cc(F)cc(C(F)(F)F)c3)c21 [Compound I-397] | 0.1 to 0.5 |
| O=C1N[C@@H](c2cc(F)ccc2Cl)c2c(NC(=O)N3C[C@](O)(C(F)(F)F)c4cc(F)ccc43)cc(-n3ccnn3)cc21 (single isomer, unassigned) [Compound I-2550] | 1 to 10 |
| O=C(Nc1cc(Br)cc2c1C(c1cc(F)ccc1Cl)NC2=O)c1ccc(C(F)F)cc1 (stereo not shown) [Compound I-572] | 1 to 10 |
| O=C(Nc1cc(Br)cc2c1C(c1cc(Cl)cc(F)c1F)NC2=O)c1cc(F)cc(C(F)(F)F)c1 (stereo not shown) [Compound I-785] | ≤ 0.1 |
| CCOc1ncc(C(=O)Nc2cccc3c2C(c2ccccc2C)NC3=O)cc1F (stereo not shown) [Compound I-107] | 10 to 100 |
| O=C(Nc1cc(-c2ccc(C(F)F)nc2)cc2c1C(c1cc(F)ccc1Cl)NC2=O)c1cc(F)cc(C(F)(F)F)c1 (stereo not shown) [Compound I-1932] | 0.1 to 0.5 |
| Cc1ccccc1C1NC(=O)c2cccc(NC(=O)c3cccc(C(F)(F)F)c3F)c21 (stereo not shown) [Compound I-12] | 10 to 100 |
| CN1C(=O)CC[C@@H]1COc1cc(NC(=O)c2cc(F)cc(C(F)(F)F)c2)c2c(c1)C(=O)N[C@@H]2c1cc(F)ccc1Cl (single isomer, unassigned) [Compound I-1569] | 10 to 100 |
| O=C(Nc1cc(-c2ccc(C(F)F)nc2)cc2c1[C@@H](c1cc(F)ccc1Cl)NC2=O)c1cc(F)cc(C(F)(F)F)c1 [Compound I-2004] | 1 to 10 |
| Cc1ccccc1C1NC(=O)c2nccc(NC(=O)N3CCc4ncccc43)c21 (stereo not shown) [Compound I-199] | 10 to 100 |
